{"source": "patent US20240199555A1", "about": "“APPLICATIONS OF BIASED LIGANDS OF THE SEROTONIN 5-HT7 RECEPTOR FOR THE TREATMENT OF PAIN, MULTIPLE SCLEROSIS AND THE CONTROL OF THERMOREGULATION” (Centre National de la Recherche Scientifique, priority 2021, published 2024)", "key": {"human 5-HT1A receptor": {"biological_target": "human 5-HT1A receptor (Homo sapiens (Human), UniProt P08908)", "sequence (P08908 whole entry)": "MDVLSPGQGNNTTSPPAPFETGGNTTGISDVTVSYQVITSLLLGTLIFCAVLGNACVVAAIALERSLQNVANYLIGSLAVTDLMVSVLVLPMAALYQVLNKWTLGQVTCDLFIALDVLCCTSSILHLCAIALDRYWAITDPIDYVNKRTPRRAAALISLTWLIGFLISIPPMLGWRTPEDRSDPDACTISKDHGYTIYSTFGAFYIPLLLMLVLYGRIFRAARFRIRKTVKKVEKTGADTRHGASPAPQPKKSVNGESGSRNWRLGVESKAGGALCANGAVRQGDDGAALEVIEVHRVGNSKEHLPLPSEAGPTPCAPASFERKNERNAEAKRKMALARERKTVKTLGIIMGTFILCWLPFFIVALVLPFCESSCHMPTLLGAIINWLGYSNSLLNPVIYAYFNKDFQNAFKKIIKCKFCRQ", "experiment": "Radioligand binding competition, 5-HT1A", "details": "selectivity panel"}, "human 5-HT2A receptor": {"biological_target": "human 5-HT2A receptor (Homo sapiens (Human), UniProt P28223)", "sequence (P28223 whole entry)": "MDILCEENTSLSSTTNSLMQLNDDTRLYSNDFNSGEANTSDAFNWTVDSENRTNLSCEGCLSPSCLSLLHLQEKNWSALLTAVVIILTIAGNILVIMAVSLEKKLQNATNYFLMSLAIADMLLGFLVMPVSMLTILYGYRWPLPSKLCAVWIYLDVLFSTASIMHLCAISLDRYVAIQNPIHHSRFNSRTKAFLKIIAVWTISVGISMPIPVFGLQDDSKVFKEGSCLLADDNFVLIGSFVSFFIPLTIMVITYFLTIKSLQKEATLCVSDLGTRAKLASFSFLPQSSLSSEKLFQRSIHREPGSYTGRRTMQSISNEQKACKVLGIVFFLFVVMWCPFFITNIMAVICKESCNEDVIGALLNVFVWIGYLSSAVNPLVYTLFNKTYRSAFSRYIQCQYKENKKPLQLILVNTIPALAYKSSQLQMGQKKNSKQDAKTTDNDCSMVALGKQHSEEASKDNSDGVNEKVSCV", "experiment": "Radioligand binding competition, 5-HT2A", "details": "selectivity panel"}, "5-HT7(b) receptors": {"biological_target": "5-HT7(b) receptors (Homo sapiens, UniProt P34969)", "sequence (P34969 whole entry, looked up)": "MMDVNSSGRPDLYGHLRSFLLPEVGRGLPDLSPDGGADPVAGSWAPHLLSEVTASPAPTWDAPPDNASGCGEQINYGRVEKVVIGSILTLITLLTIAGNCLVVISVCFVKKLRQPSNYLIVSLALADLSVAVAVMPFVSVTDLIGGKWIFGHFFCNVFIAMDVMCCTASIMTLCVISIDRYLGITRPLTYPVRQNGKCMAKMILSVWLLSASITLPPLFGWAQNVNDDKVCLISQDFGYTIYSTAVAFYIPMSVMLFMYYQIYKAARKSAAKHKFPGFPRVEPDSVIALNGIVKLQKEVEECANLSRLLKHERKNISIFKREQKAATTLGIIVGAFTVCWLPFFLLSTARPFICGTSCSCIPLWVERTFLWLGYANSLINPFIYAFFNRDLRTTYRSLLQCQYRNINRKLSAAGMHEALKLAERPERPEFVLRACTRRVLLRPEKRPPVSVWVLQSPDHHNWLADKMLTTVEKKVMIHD", "experiment": "BRET between 5-HT7-RLuc and Venus-mini G proteins (G protein recruitment)", "assay_type": "cell-based", "quoted_text": "For −mGi, mG12 and mGq cells were also transfected with a receptor described as positively coupled to the G protein: Cells expressing the Adenosine 2 receptor A2R, the Histamine3 receptor H3R or the Ghrelin receptor GHSR were stimulated with adenosine, imetit or ghrelin respectively. Ligand mediated BRET changes are expressed as induced BRET changes which were generated by subtracting at each point the signal obtained on cells incubated with PBS (without ligand).\nTo evaluate Gαs, Gαq, Gαi recruitment, cells were transiently transfected with 5-HT7R(b) C—terminally fused with donor Rluc (5-HT7R-Rluc) and acceptor NESVenus. mGs, or NES-Venus-mGsq or NES-Venus-mGsi (kindly provided by Pr. N. A. Lambert, Augusta University, Augusta, USA) (Ayoub, M. A., Landomiel, F., Gallay, N., Jegot, G., Poupon, A., Crepieux, P., and Reiter, E. (2015) Assessing Gonadotropin Receptor Function by Resonance Energy Transfer-Based Assays. Front Endocrinol (Lausanne) 6, 130; Wan, Q., Okashah, N., Inoue, A., Nehme, R., Carpenter, B., Tate, C. G., and Lambert, N. A. (2018) Mini G protein probes for active G protein-coupled receptors (GPCRs) in live cells. […] Data were plotted and analysed using GraphPad Prism 4 software for Windows (GraphPad Software Inc, San Diego, CA, USA). […]"}, "mice": {"test_system": "mice", "experiment": "MOG-induced experimental autoimmune encephalomyelitis (EAE) model", "assay_type": "in vivo", "details": "1 mg/kg, ip, day 8 to day 18", "description": "FIG. 12: Evaluation of the therapeutic potential of Serodolin in EAE model. A/Serodolin has been administrated for 10 days from day 8 after immunization. After 18 days post-immunization, myelin staining and cell infiltration have been evaluated in 3 groups of mice (non-immunized NI, Vehicle-treated mice or Serodolin-treated mice. B/Immunolabeling of astrocytes (GFAP) and microglia (Iba1) performed in all groups. Quantifications used Image J software. **p<0.01 *p<0.05.\nAutoimmune experimental encephalomyelitis (EAE) model. For EAE model, the pathology was induced by subcutaneous injection of an emulsion of MOG35-55 peptide in complete Freund's adjuvant as previously described (Terry, Ifergan, & Miller, 2016). The mice were scored blindly once a day starting at Day 7 postimmunization until Day 30 according to the following scale: 0.0=no obvious changes in motor function; 0.5=tip of tail is limp; 1.0=limp tail; 1.5=limp tail and hind leg inhibition; 2.0=limp tail and weakness of hind legs or signs of head tilting; 2.5=limp tail and dragging of hind legs or signs of head tilting; 3.0=limp tail and complete paralysis of hind legs or limb tail with paralysis of one front and one hind leg; 3.5=limp tail and complete paralysis of hind legs and animal unable to right itself when placed on its side; 4.0=limb tail, complete hind leg, and partial front leg paralysis with minimal moving and feeding. Drugs were administered at the onset of clinical symptoms (Day 8) until Day 18 after immunization. Serodolin (1 mg/kg, ip) or vehicle was daily administered. Mice were given Ketamine/Xylasine anaesthesia and then intracardiacally perfused first with PBS EDTA for 20-30 min and then with PFA (paraformaldehyde) 4% for 20-30 min. Spinal cords were removed and incubated first in PFA 4% for 48-72 h and then in sucrose 30% Organ was included in TFM (Tissue freezing media) and snap frozen using isopentane and dry ice. Spinal cord were cut on 14 μm thick sections using Leica CM3050 S Research Cryostat for immunohistochemistry experiments.\nThe inventors considered that Serodolin could have some benefit effects on some chronic inflammatory processes, like those observed in MS. Myelin oligodendrocyte glycoprotein (MOG)-induced murine experimental autoimmune encephalomyelitis (EAE) is a widely accepted model for studying the clinical and pathological features of multiple sclerosis. After MOG induction of EAE (9 animals/group), the effect of AIC-01 injection was tested for […] (1 mg/kg, ip from day 8 to day 18 after MOG induction). Each animal was assessed by a behavioural test based on motor functions, and an EAE score was obtained. […] Histopathological characteristics performed after MOG-induction allowed to decipher Serodolin effect at molecular and cellular levels. […]"}, "Sprague-Dawley male rats": {"test_system": "Sprague-Dawley male rats", "experiment": "Formalin induced inflammatory pain model", "assay_type": "in vivo", "details": "single s.c., Serodolin 10 mg/kg, MOA51 1 mg/kg, morphine", "procedure": "FIG. 18: Effect of a single administration of Serodolin (AIC01) or MOA51 in the formalin test in rats. Effect of a single subcutaneous administration of Serodolin (AIC01) or MOA51 in the formalin test in rats. In this test, Sprague-Dawley male rats received unilateral injection of a 2.5% formalin solution (50 μl) into the plantar aspect of the hindpaw on testing day (i.e. D0). Control group received Vehicle (20% DMSO/5% Tween 80/NaCl). Serodolin was subcutaneously (sc) administrated at 10 mg/kg and MOA51 at 1 mg/kg. Positive control animals were treated with morphine (3 mg/kg, sc). Paw licking time was measured. Results are expressed as mean±s.e.m. Percentage are expressed as decreased as compared to the vehicle-treated group and represented as figure (B). ***: p<0.001 as compared to the vehicle-treated group, Bonferroni's test after significant Two-way Repeated Measures ANOVA. NS: Non-significant.\nSprague-Dawley male rats (n=10 rats per group) received unilateral injection of a 2.5% formalin solution (50 μl) into the plantar aspect of the hindpaw on testing day (i.e. D0). Experience was separated into 4 groups of animals. Formalin animals+vehicle-treated group; […]—Formalin animals+Sponsor's Serodolin (10 mg/kg), s.c.—Formalin animals+Sponsor's MOA51 (1 mg/kg), s.c.—Formalin animals+internal validator-treated group (Morphine at 4 mg/Kg, s.c.). Single subcutaneous administration of the Vehicle and Sponsor's Compound 30 min (or other timing depending on Sponsor's design) before formalin injection on testing day (i.e. D0)/Subcutaneous administration of Morphine 30 min before formalin injection on testing day (i.e. D0). Hindpaw licking time recorded in consecutive 5 minutes periods from 0 to 5 minutes (early phase) and 17 to 27 minutes (late phase) after formalin injection.\nWe evaluated the effect of Serodolin as well as MOA51 in rats in the formalin test, an acute and tonic pain model based on the use of a chemical stimulus. Subcutaneous injection of formalin into the right hindpaw produces a biphasic painful response of increasing and decreasing intensity for about 30 minutes after the injection. […] Although not significant, Serodolin, MOA51 and morphine have an inhibitory effect (−40%, −35% and −57% respectively) during the early phase."}}, "data": [{"smiles": "O=c1[nH]c2ccccc2n1CN1CCN(c2ccc(F)cc2)CC1", "note": "[Serodolin]", "values": [{"measurement": "IC50", "setting": "human 5-HT1A receptor; read-out: RLB 5-HT1A IC50", "result": 203, "unit": "nM"}, {"measurement": "Ki", "setting": "human 5-HT1A receptor; read-out: RLB 5-HT1A Ki", "result": 102, "unit": "nM"}, {"measurement": "IC50", "setting": "human 5-HT2A receptor; read-out: RLB 5-HT2A IC50", "result": 16.9, "unit": "nM"}, {"measurement": "Ki", "setting": "human 5-HT2A receptor; read-out: RLB 5-HT2A Ki", "result": 2.8, "unit": "nM"}, {"measurement": "Gαs recruitment", "setting": "5-HT7(b) receptors; mGs BRET", "result": "behaved as inverse for Gαs recruitment"}, {"measurement": "Gαi, Ga12 or Gαq recruitment", "setting": "5-HT7(b) receptors; mGsi, mG12, mGsq BRET", "result": "neither classical (5-CT, SB 269970) nor biased 5-HT7R ligands (Serodolin) were able to induce the Gαi, Ga12 or Gαq recruitment"}, {"measurement": "EAE score / onset of symptoms", "setting": "mice", "result": "tended to show a delay in the onset of symptoms"}, {"measurement": "astrocytes and microglia staining", "setting": "mice", "result": "significantly decreased"}, {"measurement": "cell infiltration (DAPI)", "setting": "mice", "result": "reduces cell infiltration"}, {"measurement": "myelin staining, increase over vehicle-treated animals", "setting": "mice", "result": 65, "unit": "%"}, {"measurement": "inhibitory effect on paw licking, early phase", "setting": "Sprague-Dawley male rats; 0 to 5 minutes, not significant", "result": "−40", "unit": "%"}, {"measurement": "inhibition of licking, late phase", "setting": "Sprague-Dawley male rats; 17 to 27 minutes", "result": "−80", "unit": "%"}]}]}
